Assay results as given in US11298363B2, “Triazolobenzazepines as vasopressin V1a receptor antagonists” (RICHTER GEDEON NYRT., priority 2017, dated 2022).

Key:
[1] = biological target: T1, human vasopressin V1a receptor (Homo sapiens, UniProt P37288); test: Functional assay on human vasopressin V1a receptor expressing cell line (intracellular Ca2+ fluorescence); type: cell-based; conditions: 1321N1 cells, (Arg8)-vasopressin at EC80; read-out: IC50 (nM) on hV1a cell line
[2] = biological target: T1, human vasopressin V1a receptor; test: Human vasopressin V1a receptor binding assay; conditions: 1321N1 cell membranes, [3H]vasopressin; read-out: Ki (nM) on hV1a cell line
Procedure, shortened: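 Radioligand competition on membranes from cells expressing human V1a receptor; incubation 60 minutes at 27° C., non-specific binding with 1.2×10^−6 M unlabeled (Arg^8)-vasopressin, filtration separation. Ki by Cheng-Prusoff using Scatchard-derived KD, from at least two independent experiments.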

[3] = biological target: mouse V1a receptor (Mus musculus, UniProt Q62463); test: Functional V1a in vivo test: inhibition of oxytocin-induced scratching behaviour; conditions: mice, 10 mg/kg p.o. pretreatment
Method: Functional V1a In Vivo Test
Male mice (NMRI, ToxiCoop) weighing 18-40 g were used. Animals were kept at least 5 days after delivery, during housing and measurements they were fed and drink ad libitum. The experiments were permitted by the Local Animal Protection Committee and carried out in accordance with the European Animal Protection Directives (EU Directive 2010/63/EU).
Animal behaviour was measured by an automated behavioral analysis system (LABORAS™). The sensors located below platforms detect the mechanical vibration generated by the movement of animal, and transform into an electrical signal (Quinn et al., J Neurosci Methods 2003, 130:83-92). After analyzing signals, the system analyzes the time spent with the following behavioral parameters: locomotion, immobility, climbing, grooming. The grooming algorithm by definition is able to measure the scratching behavioral response. During the experiment, mice were pretreated with the test substance or vehicle, and after the pretreatment period scratching-inducing compound (s.c. 0.3 mg/kg oxytocin) was administered, and then the animals were individually placed into measuring cages. […] To reduce the exploratory activity, the animals were measured after a 1-hour habituation to the cage. The behavioural parameters were compared to the parallel measured parameters of the control animals.
The behavioural inhibitory effect of the substances was calculated with average values of parallel measured vehicle treated groups and presented as the percentage of inhibition: 0% was expressed as average value of scratching behaviour of vehicle pretreated animals (and phys. saline s.c. pretreated with vehicle), while 100% was expressed as average value of scratching of vehicle pretreated animals that received oxytocin subcutaneously. For statistical analysis one-way analysis of variance (ANOVA) with Tukey post hoc test were used.

T1 sequence (P37288 whole entry): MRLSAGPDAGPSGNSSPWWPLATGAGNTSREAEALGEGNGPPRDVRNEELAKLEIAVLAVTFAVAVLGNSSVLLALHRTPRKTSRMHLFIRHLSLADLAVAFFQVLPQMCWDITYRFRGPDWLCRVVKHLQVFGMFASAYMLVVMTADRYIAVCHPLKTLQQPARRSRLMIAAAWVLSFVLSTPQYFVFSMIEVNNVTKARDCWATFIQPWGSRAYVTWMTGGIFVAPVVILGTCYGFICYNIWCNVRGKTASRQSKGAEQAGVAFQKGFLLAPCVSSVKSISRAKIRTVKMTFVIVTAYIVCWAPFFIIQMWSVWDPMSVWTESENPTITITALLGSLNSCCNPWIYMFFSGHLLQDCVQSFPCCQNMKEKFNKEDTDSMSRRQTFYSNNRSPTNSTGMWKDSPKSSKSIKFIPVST
mouse V1a receptor, sequence (Q62463 whole entry): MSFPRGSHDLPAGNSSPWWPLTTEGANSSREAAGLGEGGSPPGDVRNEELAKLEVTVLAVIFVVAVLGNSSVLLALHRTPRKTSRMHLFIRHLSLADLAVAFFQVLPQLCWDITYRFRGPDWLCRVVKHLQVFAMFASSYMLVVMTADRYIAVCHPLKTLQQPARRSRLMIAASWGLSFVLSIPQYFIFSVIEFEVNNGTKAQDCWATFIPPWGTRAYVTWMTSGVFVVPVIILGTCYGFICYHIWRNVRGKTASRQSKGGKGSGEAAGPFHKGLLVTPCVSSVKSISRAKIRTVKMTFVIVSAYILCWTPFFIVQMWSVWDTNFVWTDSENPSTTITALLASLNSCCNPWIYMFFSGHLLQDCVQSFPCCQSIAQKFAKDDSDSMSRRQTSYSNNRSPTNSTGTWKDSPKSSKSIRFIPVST

| Structure (SMILES) | IC50 [1] [nM] | Ki [2] [nM] | inhibition (%) of oxytocin-induced scratching behaviour response [3] [%] |
| --- | --- | --- | --- |
| CO[C@@H]1Cc2cc(Cl)ccc2-n2c(nnc2[C@H]2CC[C@H](Oc3ccccn3)CC2)C1 (single isomer, unassigned) [Example 104] | 0.6 | 0.2 | 67 |
| NCC(=O)N[C@@H]1Cc2cc(Cl)ccc2-n2c(nnc2[C@H]2CC[C@H](Oc3ccccn3)CC2)C1 [Example 12, N-{(5R)-8-chloro-1-[trans-4-(pyridin-2-yloxy)cyclohexyl]-5,6-dihydro-4H-[1,2,4]triazolo[4,3-a][1]benzazepin-5-yl}glycinamide] | 9 | 0.8 | 34 |
| CCNC1Cc2cc(Cl)ccc2-n2c(nnc2[C@H]2CC[C@H](Oc3ccccn3)CC2)C1 (stereo partly drawn) [Example 23, 8-chloro-N-ethyl-1-[trans-4-(pyridin-2-yloxy)cyclohexyl]-5,6-dihydro-4H-[1,2,4]triazolo[4,3-a][1]benzazepine-5-amine] | 6.4 | 1 | 75 |
| O[C@H]1Cc2cc(Cl)ccc2-n2c(nnc2[C@H]2CC[C@H](Oc3ccccn3)CC2)C1 [Example 56, (5S)-8-chloro-1-[trans-4-(pyridin-2-yloxy)cyclohexyl]-5,6-dihydro-4H-[1,2,4]triazolo[4,3-a][1]benzazepin-5-ol] | 1.2 | 0.3 | 92 |
| CCO[C@]1(C)CC[C@@H](c2nnc3n2-c2ccc(Cl)cc2CC2(C3)OCCO2)CC1 [Example 237, 8′-chloro-1′-(trans-4-ethoxy-4-methylcyclohexyl)-4′H,6′H-spiro[1,3-dioxolane-2,5-[1,2,4]triazolo[4,3-a][1]benzazepine]] | 1.5 | 0.2 | – |
| Clc1ccc2c(c1)CC1(Cc3nnc(C4CCN(Cc5ccccn5)C4)n3-2)OCCO1 (stereo not shown) [Example 239, 8′-chloro-1′-[1-(pyridin-2-ylmethyl)pyrrolidin-3-yl]-4′H,6′H-spiro[1,3-dioxolane-2,5′-[1,2,4]triazolo[4,3-a][1]benzazepine]] | 5.6 | 1.2 | – |
| CC[C@]1(OC)CC[C@H](c2nnc3n2-c2ccc(Cl)cc2CC2(C3)OCCO2)CC1 [Example 241, 8′-chloro-1′-(trans-4-ethyl-4-methoxycyclohexyl)-4′H,6′H-spiro[1,3-dioxolane-2,5′-[1,2,4]triazolo[4,3-a][1]benzazepine]] | 2.6 | 0.4 | – |
| CCC[C@]1(OC)CC[C@@H](c2nnc3n2-c2ccc(Cl)cc2CC2(C3)OCCO2)CC1 [Example 243, 8′-chloro-1′-(cis-4-methoxy-4-propylcyclohexyl)-4′H,6′H-spiro[1,3-dioxolane-2,5-[1,2,4]triazolo[4,3-a][1]benzazepine]] | 2.8 | 0.4 | – |
| CCO[C@]1(CC)CC[C@@H](c2nnc3n2-c2ccc(Cl)cc2CC(NC(C)C)C3)CC1 (stereo partly drawn) [Example 244, 8-chloro-1-(trans-4-ethoxy-4-ethylcyclohexyl)-N-(propan-2-yl)-5,6-dihydro-4H-[1,2,4]triazolo[4,3-a][1]benzazepin-5-amine] | 263 | 25 | – |
| Clc1ccc2c(c1)CC1(Cc3nnc([C@@H]4CCN(Cc5ccccn5)C4)n3-2)OCCO1 [Example 246, 8′-chloro-1′-[(3R)-1-(pyridin-2-ylmethyl)pyrrolidin-3-yl]-4′H,6′H-spiro[1,3-dioxolane-2,5′-[1,2,4]triazolo[4,3-a][1]benzazepine]] | 3.4 | 0.5 | – |
| COC1Cc2cc(Cl)ccc2-n2c(nnc2[C@@H]2CCN(Cc3cccnc3)C2)C1 (stereo partly shown) [Example 247] | 30 | 5 | – |
| COC1Cc2cc(Cl)ccc2-n2c(nnc2[C@@H]2CCN(Cc3ccccn3)C2)C1 (stereo partly drawn) [Example 248, 8-chloro-5-methoxy-1-[(3R)-1-(pyridin-2-ylmethyl)pyrrolidin-3-yl]-5,6-dihydro-4H-[1,2,4]triazolo[4,3-a][1]benzazepine] | 22 | 2.3 | – |
| Clc1ccc2c(c1)CC1(Cc3nnc([C@H]4CCN(Cc5cccnc5)C4)n3-2)OCCO1 [Example 249, 8′-chloro-1-[(3S)-1-(pyridin-3-ylmethyl)pyrrolidin-3-yl]-4′H,6′H-spiro[1,3-dioxolane-2,5′-[1,2,4]triazolo[4,3-a][1]benzazepine]] | 7 | 0.8 | – |
| Clc1ccc2c(c1)CC1(Cc3nnc([C@@H]4CCN(Cc5cccnc5)C4)n3-2)OCCO1 [Example 250, 8′-chloro-1′-[(3R)-1-(pyridin-3-ylmethyl)pyrrolidin-3-yl]-4′H, 6′H-spiro[1,3-dioxolane-2,5′-[1,2,4]triazolo[4,3-a][1]benzazepine]] | 27 | 2.9 | – |
| COC1Cc2cc(Cl)ccc2-n2c(nnc2[C@H]2CCN(Cc3cccnc3)C2)C1 (stereo partly drawn) [Example 251, 8-chloro-5-methoxy-1-[(3S)-1-(pyridin-3-ylmethyl)pyrrolidin-3-yl]-5,6-dihydro-4H-[1,2,4]triazolo[4,3-a][1]benzazepine] | 152 | 18.5 | – |
| Clc1ccc2c(c1)CC1(Cc3nnc([C@H]4CCN(Cc5ccccn5)C4)n3-2)OCCO1 [Example 252, 8′-chloro-1′-[(3S)-1-(pyridin-2-ylmethyl)pyrrolidin-3-yl]-4′H,6′H-spiro[1,3-dioxolane-2,5′-[1,2,4]triazolo[4,3-a][1]benzazepine]] | 8.2 | 0.7 | – |
| COC1Cc2cc(Cl)ccc2-n2c(nnc2[C@H]2CCN(Cc3ccccn3)C2)C1 (stereo partly drawn) [Example 253, 8-chloro-5-methoxy-1-[(3S)-1-(pyridin-2-ylmethyl)pyrrolidin-3-yl]-5,6-dihydro-4H-[1,2,4]triazolo[4,3-a][1]benzazepine] | 66 | 5 | – |

Further lines, results first:

| IC50 [1] [nM] | Ki [2] [nM] | inhibition (%) of oxytocin-induced scratching behaviour response [3] [%] | Structure (SMILES) |
| --- | --- | --- | --- |
| 1.4 | 0.3 | 96 | COC1Cc2cc(Cl)ccc2-n2c(nnc2[C@H]2CC[C@H](Oc3ccccn3)CC2)C1 (mixture of isomers) [Example 58, 8-chloro-5-methoxy-1-[trans-4-(pyridin-2-yloxy)cyclohexyl]-5,6-dihydro-4H-[1,2,4]triazolo[4,3-a][1]benzazepine] |
| 2.6 | 4 | 30 | COC1Cc2cc(Cl)ccc2-n2c(nnc2[C@H]2CC[C@H](C(F)(F)F)CC2)C1 (mixture of isomers) [Example 74, 8-chloro-5-methoxy-1-[trans-4-(trifluoromethyl)cyclohexyl]-5,6-dihydro-4H-[1,2,4]triazolo[4,3-a][1]benzazepine] |
| 0.7 | 0.2 | 71 | CO[C@H]1Cc2cc(Cl)ccc2-n2c(nnc2[C@H]2CC[C@H](Oc3ccccn3)CC2)C1 (single isomer, unassigned) [Example 103] |
| 5.4 | 0.6 | 89 | Clc1ccc2c(c1)CC(NC1CCOCC1)Cc1nnc([C@H]3CC[C@H](Oc4ccccn4)CC3)n1-2 (stereo partly drawn) [Example 29, 8-chloro-1-[trans-4-(pyridin-2-yloxy)cyclohexyl]-N-(tetrahydro-2H-pyran-4-yl)-5,6-dihydro-4H-[1,2,4]triazolo[4,3-a][1]benzazepine-5-amine] |
| 8.2 | 0.7 | – | CCC[C@]1(OCC)CC[C@H](c2nnc3n2-c2ccc(Cl)cc2CC2(C3)OCCO2)CC1 [Example 238, 8′-chloro-1′-(trans-4-ethoxy-4-propylcyclohexyl)-4′H,6′-spiro[1,3-dioxolane-2,5′-[1,2,4]triazolo[4,3-a][1]benzazepine]] |
| 3.1 | 0.5 | – | CC[C@]1(OC)CC[C@@H](c2nnc3n2-c2ccc(Cl)cc2CC2(C3)OCCO2)CC1 [Example 240, 8′-chloro-1′-(cis-4-ethyl-4-methoxycyclohexyl)-4′H,6′H-spiro[1,3-dioxolane-2,5′-[1,2,4]triazolo[4,3-a][1]benzazepine]] |
| 1.8 | 0.5 | – | CCC[C@]1(OC)CC[C@H](c2nnc3n2-c2ccc(Cl)cc2CC2(C3)OCCO2)CC1 [Example 242, 8′-chloro-1′-(trans-4-methoxy-4-propylcyclohexyl)-4′H,6′H-spiro[1,3-dioxolane-2,5′-[1,2,4]triazolo 4,3a][1]benzoepin] |
| 130 | 7 | – | CCO[C@]1(CC)CC[C@@H](c2nnc3n2-c2ccc(Cl)cc2CC(N(C)C)C3)CC1 (stereo partly drawn) [Example 245, 8-chloro-1-(trans-4-ethoxy-4-ethylcyclohexyl)-N,N-dimethyl-5,6-dihydro-4H-[1,2,4]triazolo[4,3-a][1]benzazepin-5-amine] |
